Activity calls are given as the source filed them. The rule behind the calls is not given here.
Key:
HCT-116 = assay: cells; type: functional, cell-based; conditions: Homo sapiens, HCT-116, 72 h
Description: Antiproliferative activity against human HCT-116 cells assessed as inhibition of cell proliferation measured after 72 hrs by MTT assay

MCF7 = assay: cells; type: functional, cell-based; conditions: Homo sapiens, MCF7, 72 h
Description: Antiproliferative activity against human MCF7 cells assessed as inhibition of cell proliferation measured after 72 hrs by MTT assay

A549 = assay: cells; type: functional, cell-based; conditions: Homo sapiens, A549, 72 h
Description: Antiproliferative activity against human A549 cells assessed as inhibition of cell proliferation measured after 72 hrs by MTT assay

Histone deacetylase 1 [1] = target: T1, Histone deacetylase 1 (Homo sapiens, UniProt Q13547); conditions: Sf9, dose 100.0 nM, time 75.0 min
[2] = target: T2, Hepatocyte growth factor receptor (Homo sapiens, UniProt P08581); conditions: dose 100.0 nM, time 10.0 min
Histone deacetylase 1 [3] = target: T1, Histone deacetylase 1; assay: Inhibition of human C-terminal Flag tagged HDAC1 (1 to 482 residues) expressed in SF9 cells using Ac-peptide substrate preincubated for 15 mins followed by substrate addition and measured after 60 mins by microplate reader method
[4] = target: T2, Hepatocyte growth factor receptor; assay: Inhibition of c-MET(unknown origin) using FAM labelled peptide substrate preincubated for 10 mins followed by substrate addition and measured by microplate reader method

T2 sequence (P08581 whole entry, the tested form may be a part): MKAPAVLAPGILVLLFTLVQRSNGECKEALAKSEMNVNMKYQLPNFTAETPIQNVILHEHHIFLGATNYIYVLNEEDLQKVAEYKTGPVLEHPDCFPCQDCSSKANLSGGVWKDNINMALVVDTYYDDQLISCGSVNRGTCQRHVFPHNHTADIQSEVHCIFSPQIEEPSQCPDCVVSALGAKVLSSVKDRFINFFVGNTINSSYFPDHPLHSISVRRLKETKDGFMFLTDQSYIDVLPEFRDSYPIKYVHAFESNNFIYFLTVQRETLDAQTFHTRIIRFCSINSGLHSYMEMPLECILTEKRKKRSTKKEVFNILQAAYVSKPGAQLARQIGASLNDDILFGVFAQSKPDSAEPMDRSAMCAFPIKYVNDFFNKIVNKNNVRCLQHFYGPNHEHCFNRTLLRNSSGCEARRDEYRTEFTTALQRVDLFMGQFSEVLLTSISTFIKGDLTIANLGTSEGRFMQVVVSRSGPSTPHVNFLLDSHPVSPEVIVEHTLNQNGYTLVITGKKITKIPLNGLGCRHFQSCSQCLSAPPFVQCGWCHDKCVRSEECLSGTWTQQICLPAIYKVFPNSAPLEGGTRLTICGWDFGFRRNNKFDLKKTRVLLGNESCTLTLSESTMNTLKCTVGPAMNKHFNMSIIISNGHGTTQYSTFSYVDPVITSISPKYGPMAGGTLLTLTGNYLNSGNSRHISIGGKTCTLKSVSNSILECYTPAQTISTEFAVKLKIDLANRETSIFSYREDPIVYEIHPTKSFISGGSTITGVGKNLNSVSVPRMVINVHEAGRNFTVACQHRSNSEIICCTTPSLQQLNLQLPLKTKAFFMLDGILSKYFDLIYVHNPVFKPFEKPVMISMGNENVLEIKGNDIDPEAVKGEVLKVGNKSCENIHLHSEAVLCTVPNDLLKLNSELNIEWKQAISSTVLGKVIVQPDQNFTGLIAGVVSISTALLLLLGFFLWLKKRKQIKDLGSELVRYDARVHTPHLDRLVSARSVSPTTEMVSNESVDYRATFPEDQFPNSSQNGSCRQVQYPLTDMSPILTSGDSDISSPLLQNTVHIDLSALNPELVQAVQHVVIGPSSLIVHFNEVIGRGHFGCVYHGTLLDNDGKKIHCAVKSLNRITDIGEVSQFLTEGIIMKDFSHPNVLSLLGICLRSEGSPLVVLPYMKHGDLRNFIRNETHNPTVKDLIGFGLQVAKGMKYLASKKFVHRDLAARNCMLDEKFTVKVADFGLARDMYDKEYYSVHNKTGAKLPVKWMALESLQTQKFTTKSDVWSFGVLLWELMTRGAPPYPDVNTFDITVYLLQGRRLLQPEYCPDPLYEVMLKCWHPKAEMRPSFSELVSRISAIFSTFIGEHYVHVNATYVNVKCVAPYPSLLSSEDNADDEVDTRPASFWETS
T1 sequence (Q13547 whole entry): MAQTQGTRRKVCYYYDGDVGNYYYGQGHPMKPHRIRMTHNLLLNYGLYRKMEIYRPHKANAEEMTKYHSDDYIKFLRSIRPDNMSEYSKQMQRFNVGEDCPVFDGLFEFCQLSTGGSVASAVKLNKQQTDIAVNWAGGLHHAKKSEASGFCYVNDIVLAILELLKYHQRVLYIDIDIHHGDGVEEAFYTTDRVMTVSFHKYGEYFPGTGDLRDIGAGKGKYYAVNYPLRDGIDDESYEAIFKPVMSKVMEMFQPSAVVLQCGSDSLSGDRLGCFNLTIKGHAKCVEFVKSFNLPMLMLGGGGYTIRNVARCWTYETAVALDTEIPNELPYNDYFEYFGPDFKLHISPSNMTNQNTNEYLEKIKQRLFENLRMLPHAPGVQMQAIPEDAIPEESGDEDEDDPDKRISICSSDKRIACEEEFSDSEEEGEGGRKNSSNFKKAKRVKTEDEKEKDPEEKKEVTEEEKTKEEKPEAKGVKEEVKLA

Row | IC50 (HCT-116) [nM] | IC50 (MCF7) [nM] | IC50 (A549) [nM] | inhibition (Histone deacetylase 1 [1]) | inhibition [2] [%] | IC50 (Histone deacetylase 1 [3]) [nM] | IC50 [4] [nM] | Compound
1 | 590 | 2320 | 1320 | 61.1% | 89.1 |  |  | COc1cc2c(Oc3ccc(NC(=O)c4nn(-c5ccccc5F)cc(C)c4=O)cc3F)ccnc2cc1OCCCCCC(=O)NO
2 | 690 | 2330 | 4170 | 53.3% | 95 |  |  | COc1cc2c(Oc3ccc(NC(=O)c4nn(-c5ccccc5)cc(C)c4=O)cc3F)ccnc2cc1OCCCCCC(=O)NO
3 | 4670 | 5980 | 7800 |  |  |  |  | COc1cc2nccc(Oc3ccc(NC(=O)C4(C(=O)Nc5ccc(F)cc5)CC4)cc3)c2cc1OC [CABOZANTINIB]
4 | 640 | 1600 | 4460 | 10.7% | 98.5 |  |  | COc1cc2c(Oc3ccc(NC(=O)c4nn(-c5ccccc5C)cc(C)c4=O)cc3)ccnc2cc1OCCCC(=O)NO
5 | 590 | 750 | 780 | 35.3% | 46.3 |  |  | COc1cc2c(Oc3ccc(NC(=O)c4nn(-c5cccc(C(F)(F)F)c5)cc(C)c4=O)cc3)ccnc2cc1OCCCCCCC(=O)NO
6 | 940 | 7410 | 9260 | 12.6% | 96.4 |  |  | COc1cc2c(Oc3ccc(NC(=O)c4nn(-c5ccccc5)ccc4=O)cc3)ccnc2cc1OCCCC(=O)NO
7 | 150 | 1610 | 420 | 86.6% | 88.6 | 34 | 19.9 | COc1cc2c(Oc3ccc(NC(=O)c4nn(-c5ccccc5)cc(C)c4=O)cc3)ccnc2cc1OCCCCCCC(=O)NO
8 | 400 | 2560 | 160 | 47.6% | 72.8 |  |  | COc1cc2c(Oc3ccc(NC(=O)c4nn(-c5ccc(C)cc5)cc(C)c4=O)cc3)ccnc2cc1OCCCCCCC(=O)NO
9 | 300 | 1210 | 230 | 86.4% | 78.2 | 34.8 | 14.2 | CCc1cn(-c2ccccc2)nc(C(=O)Nc2ccc(Oc3ccnc4cc(OCCCCCCC(=O)NO)c(OC)cc34)cc2)c1=O
10 | 290 | 1830 | 1820 | 36.9% | 95.7 |  |  | COc1cc2c(Oc3ccc(NC(=O)c4nn(-c5ccccc5C)cc(C)c4=O)cc3)ccnc2cc1OCCCCCC(=O)NO
11 | 350 | 3480 | 1590 | 5.2% | 50.2 |  |  | COc1cc2c(Oc3ccc(NC(=O)c4nn(-c5ccc(Cl)c(C(F)(F)F)c5)cc(C)c4=O)cc3)ccnc2cc1OCC(=O)NO
12 | 9260 | 8780 | 5980 | inactive | 63.5 |  |  | COc1cc2c(Oc3ccc(NC(=O)c4nn(-c5ccccc5C)cc(C)c4=O)cc3)ccnc2cc1OCC(=O)NO
13 | 370 | 1680 | 280 | 62% | 76.5 |  |  | COc1cc2c(Oc3ccc(NC(=O)c4nn(-c5cccc(C)c5)cc(C)c4=O)cc3)ccnc2cc1OCCCCCCC(=O)NO

— ChEMBL document CHEMBL4706531, “Discovery of Novel c-Mesenchymal-Epithelia transition factor and histone deacetylase dual inhibitors” (Eur J Med Chem, 2020)
